Measured values reported in paper PMC4492759, “Pharmacological profiling of the hemodynamic effects of cannabinoid ligands: a combined in vitro and in vivo approach” (Pharmacology Research & Perspectives, 2015).

Assays:
[1] = test system: conscious WT, CB1−/− and GPR55−/− mice; experiment: Blood pressure and heart rate responses in conscious mice (WT, CB1−/−, GPR55−/−); conditions: for HR bradycardic response - area above the curve / MABP depressor response - area above the curve: metoprolol pretreated
[2] = test system: anesthetized Sprague–Dawley (SD) rats; experiment: Hemodynamic responses (MABP, HR) in anesthetized normotensive rats; format: in vivo, rat; conditions: O-1602 5–100 ng kg−1 i.v.
Description: (§1) All experiments performed under terminal anesthesia were carried out following approval by Robert Gordon University Animal Ethics Panel. Anesthesia was induced in male SD rats (200–300 g) by sodium pentobarbital [60 mg kg^−1 intraperitoneal (i.p.) injection]. Male/female WT and GPR55^−/− mice (25–35 g) were anesthetized with a mixture of ketamine (120 mg kg^−1) and xylazine (16 mg kg^−1) via i.p. injection. For both species the trachea was cannulated to allow artificial respiration with room air when required (54 strokes min^−1 and tidal volume 1.5 mL 100 g^−1 for rats; 120 strokes min^−1 and tidal volume 100 μL 10 g^−1 for mice) and the left carotid artery and right jugular vein were cannulated for the measurement of arterial BP (MLT844 Physiological Pressure Transducer; AD Instruments, Oxford, UK) and drug administration, respectively. Core temperature was monitored continuously and maintained at 37–38°C with the aid of a Vetcare heated pad (Harvard Apparatus Ltd., Boston, Massachusetts, USA). Anesthesia was monitored by foot pinch reflex and maintained throughout by administration of additional doses of anesthetic (rats: 3–4 mg kg^−1 of sodium pentobarbital salt i.v.; mice: 50 μL 25 g^−1of ketamine/xylazine i.p.) every 40 min, or as required. […] Heart rate (HR) was calculated from the ECG and recorded throughout the entire experimental period. After a stabilization period of approximately 15 min dose–response experiments were carried out as described below.
(§2) As a preliminary assessment of the effects of ACEA on arterial BP, a single bolus intravenous dose (3 mg kg^−1; selected from the literature as a dose known to produce a depressor response) was given to anesthetized rats. […] The time interval between drug administrations was 10–15 min to allow BP values to return to predrug values.

conscious SHR = experiment: Blood pressure and heart rate responses in conscious hypertensive rats (SHR)
Description: Following anesthesia with isoflurane (4% in air followed by 2% during surgery) with supplemental Romefen® (10 mg kg^−1 s.c.; Merial SAS, Lyon, France) for analgesia, a polyethylene catheter (PE10) was inserted into the abdominal aorta, proximal to the kidneys, for BP recording, and a silicon catheter (SEDAT, Irigny, France) was inserted into the jugular vein for drug administration. Both catheters were tunneled subcutaneously to the neck region and anchored to an inert button. Immediately after completion of surgery the rats were connected to a tethered swivel system with a continuous intra-arterial infusion (700 μL h^−1) of 0.9% NaCl containing melagatran (10 mg L^−1) in order to keep the arterial line open. The anesthetic and surgical procedures for the CB1^−/−, GPR55^−/−, and WT mice used for the studies in conscious animals were identical to those in the rat, with the exception that the arterial catheter was placed in the descending aorta via the carotid artery. Following the completion of surgery, the animals were allowed to recover for 24 h with free access to food and water.
In order to take account of any vehicle responses and variations in the time course of the responses to the various cannabinoid ligands, a standard approach was adopted to measuring the BP responses in all experimental models. […] All drug responses were compared directly with the vehicle responses to determine the exact magnitude of the response to the ligand.

[3] = test system: anesthetized WT and GPR55−/− mice; experiment: Hemodynamic responses (MABP, HR) in anesthetized WT and GPR55−/− mice; format: in vivo, mouse; conditions: O-1602 5–100 ng kg−1 i.v.; WT mice
Description: as §1, §2

mouse GPR55 = biological target: T1, mouse GPR55 (Mus musculus, UniProt Q3UJF0); experiment: [35S]-GTPγS binding, membranes of HEK293s cells transfected with mouse GPR55; format: biochemical; conditions: agonist mode; mean ± SEM, at least three experiments; read-out: GPR55 EC50, Mouse
T1 construct: expressed in transfected cells; host or cells: HEK293s, transient transfection; membranes prepared
T1 sequence (Q3UJF0 whole entry): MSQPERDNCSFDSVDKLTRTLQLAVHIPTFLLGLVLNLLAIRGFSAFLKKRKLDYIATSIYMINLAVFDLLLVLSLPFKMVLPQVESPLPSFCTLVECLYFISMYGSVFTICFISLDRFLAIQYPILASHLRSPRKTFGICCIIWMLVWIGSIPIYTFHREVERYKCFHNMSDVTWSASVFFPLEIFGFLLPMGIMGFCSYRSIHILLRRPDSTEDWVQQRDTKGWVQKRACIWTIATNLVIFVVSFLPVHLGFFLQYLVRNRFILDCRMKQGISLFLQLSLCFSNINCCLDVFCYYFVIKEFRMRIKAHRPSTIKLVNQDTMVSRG
Description: HEK293s cells were transiently transfected with cDNA encoding rat or mouse CB1 or GPR55 and membranes were prepared as previously described (Ryberg et al. [2007]). In short, agonist activities in [^35S]-GTPγS binding assays were determined by the addition of ligand at 30°C for 45 min in membrane buffer [50 mmol/L NaCl, 5 mmol/L MgCl2, 0.5 mmol/L EDTA, 25 mmol/L HEPES (all Sigma, Gillingham, Dorset, UK); pH 7.4] containing 0.05 μg μL^−1 of membrane protein with 0.01% BSA, 25 μmol/L guanosine 5′-diphosphate (GDP), 100 μmol/L dithiothreitol (DTT), and 0.53 nmol/L [^35S]GTPγS (PerkinElmer) in a final volume of 200 μL. Antagonist assays were performed similarly, with the addition of an EC80 concentration of CP55940 as a nonselective CB1/CB2 agonist in conjunction with the ligand to be tested. Nonspecific binding was determined in the presence of 20 μmol/L unlabeled GTPγS. The reaction was terminated by addition of ice-cold wash buffer (50 mmol/L Tris-HCl, 5 mmol/L MgCl2, 50 mmol/L NaCl; pH 7.4) followed by rapid filtration under vacuum through 96-well B-glass fiber filter plates (PerkinElmer, Waltham, Massachusetts, USA) using a Biomek FX (Beckman Coulter, Bromma, Sweden). The filter plates were dried (30 min at 50°C) before scintillation liquid (PerkinElmer) was added onto the filters and the bound radioactivity was determined using a scintillation counter (Wallac). Data were fitted with a four-parameter logistic fit using the equation y = A + (B − A)/1 + ((C/x)^D), where A is no activation, B is full activation, C is the EC50, and D is the Hill slope. All data were based on at least three independent experiments.

[4] = O-1602 5 mg kg−1, +CBD (5 mg kg−1)
[5] = O-1602 5 mg kg−1, column Control
[6] = O-1602 10 mg kg−1, +CBD (5 mg kg−1)
[7] = O-1602 10 mg kg−1, column Control
[8] = O-1602 15 mg kg−1, +CBD (5 mg kg−1)
[9] = O-1602 15 mg kg−1, column Control
[10] = O-1602 5 mg kg−1, +AM281 (10 mg kg−1), metoprolol pretreated
[11] = O-1602 5 mg kg−1, +CBD (5 mg kg−1), metoprolol pretreated
[12] = O-1602 5 mg kg−1, +CBD and AM281, metoprolol pretreated
[13] = O-1602 10 mg kg−1, +AM281 (10 mg kg−1), metoprolol pretreated
[14] = O-1602 10 mg kg−1, +CBD (5 mg kg−1), metoprolol pretreated
[15] = O-1602 10 mg kg−1, +CBD and AM281, metoprolol pretreated
[16] = O-1602 10 mg kg−1, Control, metoprolol pretreated
[17] = O-1602 20 mg kg−1, +AM281 (10 mg kg−1), metoprolol pretreated
[18] = O-1602 20 mg kg−1, +CBD (5 mg kg−1), metoprolol pretreated
[19] = O-1602 20 mg kg−1, +CBD and AM281, metoprolol pretreated
[20] = O-1602 20 mg kg−1, Control, metoprolol pretreated

C=C(C)[C@@H]1CCC(C)=C[C@H]1c1c(C)cc(O)cc1O [O-1602]
HR bradycardic response - area above the curve ([1]; O-1602 5 mg kg−1, +AM281): 55.3 ± 20.9 arbitrary units
MABP depressor response - area above the curve ([1]; O-1602 5 mg kg−1, +AM281): 64.6 ± 17.5 arbitrary units
HR bradycardic response - area above the curve ([1]; O-1602 5 mg kg−1, +CBD & AM281): 154.8 ± 61.7 arbitrary units
HR bradycardic response - area above the curve [1, 4]: 17.4 ± 11.7 arbitrary units
MABP depressor response - area above the curve [1, 4]: 99.6 ± 25.8 arbitrary units
MABP depressor response - area above the curve ([1]; O-1602 5 mg kg−1, +CBD and AM281): 73.3 ± 24.5 arbitrary units
HR bradycardic response - area above the curve [1, 5]: 41.1 ± 20.8 arbitrary units
MABP depressor response - area above the curve [1, 5]: 91.9 ± 38.2 arbitrary units
HR bradycardic response - area above the curve ([1]; O-1602 10 mg kg−1, +AM281): 130.5 ± 20.5 arbitrary units
MABP depressor response - area above the curve ([1]; O-1602 10 mg kg−1, +AM281): 95.2 ± 6.5 arbitrary units
HR bradycardic response - area above the curve ([1]; O-1602 10 mg kg−1, +CBD & AM281): 298.2 ± 111.7 arbitrary units
HR bradycardic response - area above the curve [1, 6]: 186.8 ± 42.1 arbitrary units
MABP depressor response - area above the curve [1, 6]: 73.5 ± 17.8 arbitrary units
MABP depressor response - area above the curve ([1]; O-1602 10 mg kg−1, +CBD and AM281): 114.6 ± 17.6 arbitrary units
HR bradycardic response - area above the curve [1, 7]: 48.7 ± 25.4 arbitrary units
MABP depressor response - area above the curve [1, 7]: 44.1 ± 9.6 arbitrary units
HR bradycardic response - area above the curve ([1]; O-1602 15 mg kg−1, +AM281): 183.1 ± 50.9 arbitrary units
MABP depressor response - area above the curve ([1]; O-1602 15 mg kg−1, +AM281): 101.5 ± 4.1 arbitrary units
HR bradycardic response - area above the curve ([1]; O-1602 15 mg kg−1, +CBD & AM281): 286.6 ± 105.4 arbitrary units
HR bradycardic response - area above the curve [1, 8]: 197.1 ± 17.1 arbitrary units
MABP depressor response - area above the curve [1, 8]: 148.9 ± 17.1 arbitrary units
MABP depressor response - area above the curve ([1]; O-1602 15 mg kg−1, +CBD and AM281): 119.7 ± 18.1 arbitrary units
HR bradycardic response - area above the curve [1, 9]: 95.3 ± 6.5 arbitrary units
MABP depressor response - area above the curve [1, 9]: 61.3 ± 10.9 arbitrary units
effect on MABP ([1]; O-1602, conscious CB1−/− mice): dose-dependent depressor response
effect on HR ([1]; O-1602 alone, highest dose tested, conscious WT mice): transient bradycardia
effect on MABP ([1]; O-1602 alone, conscious WT mice): no effect
depressor response ([1]; O-1602 in the presence of AM281 (10 mg kg−1), GPR55−/− mice): did not elicit a depressor response
changes in MABP or HR over and above vehicle [2]: did not produce any changes
HR tachycardic response – area under the curve (conscious SHR; [10]): 39 ± 11 arbitrary units
MABP depressor response - area above the curve (conscious SHR; [10]): 196 ± 44 arbitrary units
HR tachycardic response – area under the curve (conscious SHR; [11]): 68 ± 11 arbitrary units
MABP depressor response - area above the curve (conscious SHR; [11]): 189 ± 32 arbitrary units
HR tachycardic response – area under the curve (conscious SHR; [12]): 53 ± 22 arbitrary units
MABP depressor response - area above the curve (conscious SHR; [12]): 41 ± 17 arbitrary units
MABP depressor response - area above the curve (conscious SHR; O-1602 5 mg kg−1, Control, metoprolol 10 mg kg−1 i.v. pretreated): 59 ± 21 arbitrary units
HR tachycardic response – area under the curve (conscious SHR; O-1602 5 mg kg−1, Control, metoprolol pretreated): 61 ± 24 arbitrary units
HR tachycardic response – area under the curve (conscious SHR; [13]): 40 ± 12 arbitrary units
MABP depressor response - area above the curve (conscious SHR; [13]): 160 ± 31 arbitrary units
HR tachycardic response – area under the curve (conscious SHR; [14]): 79 ± 29 arbitrary units
MABP depressor response - area above the curve (conscious SHR; [14]): 23 ± 17 arbitrary units
HR tachycardic response – area under the curve (conscious SHR; [15]): 37 ± 32 arbitrary units
MABP depressor response - area above the curve (conscious SHR; [15]): 180 ± 29 arbitrary units
HR tachycardic response – area under the curve (conscious SHR; [16]): 18 ± 8 arbitrary units
MABP depressor response - area above the curve (conscious SHR; [16]): 56 ± 22 arbitrary units
HR tachycardic response – area under the curve (conscious SHR; [17]): 56 ± 26 arbitrary units
MABP depressor response - area above the curve (conscious SHR; [17]): 191 ± 30 arbitrary units
HR tachycardic response – area under the curve (conscious SHR; [18]): 98 ± 32 arbitrary units
MABP depressor response - area above the curve (conscious SHR; [18]): 73 ± 38 arbitrary units
HR tachycardic response – area under the curve (conscious SHR; [19]): 38 ± 16 arbitrary units
MABP depressor response - area above the curve (conscious SHR; [19]): 199 ± 29 arbitrary units
HR tachycardic response – area under the curve (conscious SHR; [20]): 72 ± 13 arbitrary units
MABP depressor response - area above the curve (conscious SHR; [20]): 26 ± 16 arbitrary units
changes in MABP or HR (conscious SHR; O-1602 alone, three ascending doses 5, 10, and 20 mg kg−1 spaced 20 min apart): did not induce any changes
changes in MABP or HR over and above vehicle [3]: did not produce any changes
EC50 (mouse GPR55): 12 ± 4 nM
